Experimental data taken from patent publication US4283494A, “Microbial lipase, process for its preparation and microbiologically pure culture therefor” (Meito Sangyo Kabushiki Kaisha, priority 1978, dated 1981).
Like-named read-outs stand apart in the source and are kept apart here.

Legend:
[1] = test system: Lipase II of Japanese Laid-Open Patent Publication No. 21387/77, Alcaligenes sp. PL-266 Meito; details: cited from earlier work
[2] = test system: Lipase I of Japanese Laid-Open Patent Publication No. 21387/77, Alcaligenes sp. PL-266 Meito; details: cited from earlier work
[3] = test system: microbial lipase of the invention, Alcaligenes sp. PL-679 Meito (FERM-P No. 3783, ATCC 31371); details: 10 min
[4] = test system: microbial lipase of the invention, Alcaligenes sp. PL-679 Meito (FERM-P No. 3783, ATCC 31371); assay: Lipase activity inhibition by inhibiting reagents (contact at 37° C. for 10 minutes, then olive oil emulsion assay); type: biochemical; details: inhibiting reagent 10^-2 mole, lipase about 3 U/ml
Experimental: An aqueous solution of the lipase sample (about 3 units/ml) is contacted with each of the inhibiting agents at 37° C. for 10 minutes, and the lipase activity is measured.
The lipase in a concentration of about 3 U/ml is contacted with various inhibiting reagents at 37° C. for 10 minutes, and then the lipase activity is measured.
Glycine buffer (1 mole, pH 8.7): 2.0 ml
Olive oil emulsion: 2.5 ml
The olive oil emulsion is prepared by adding 20 g of olive oil to 180 ml of a 10% aqueous solution of gum arabic, homogenizing the mixture at 11,000 r.p.m. for 15 minutes while it is cooled to 5°-10° C., and adjusting the pH of the homogenized mixture to 8.7.
The reaction mixture is placed in a 25 ml glass stopper tube, and reacted exactly for 10 minutes at 37° C. Then, the reaction is stopped by adding 1 ml of 2 N sulfuric acid, and 15 ml of a mixture of n-heptane and isopropanol in a ratio of 11:4 is added. The mixture is vigorously shaken for 30 seconds, and allowed to stand for more than 30 minutes. […] The mixture is treated in the same way as above, and the resulting product is titrated with a potassium hydroxide solution, and the measured value obtained is substracted from the measured value obtained above. The amount of fatty acid liberated is calculated from the resulting titration value with reference to the standard line prepared by using a known amount of palmitic acid. […]

[5] = concentration of bile salt 0.2%
[6] = concentration of bile salt 0.4%
[7] = concentration of bile salt 0.6%
[8] = concentration of bile salt 0.8%

O=C1O[C@H]([C@@H](O)CO)C([O-])=C1O.[Na+] [sodium ascorbate]
Activity inhibition by sodium ascorbate ([1]; concentration 10^-2 mole): Not inhibited
Activity inhibition by sodium ascorbate ([2]; concentration 10^-2 mole): Not inhibited

C[C@H](CCC(=O)NCC(=O)O)[C@H]1CC[C@H]2[C@@H]3[C@H](O)C[C@@H]4C[C@H](O)CC[C@]4(C)[C@H]3C[C@H](O)[C@]12C [Glycocholate]
Lipase activity, percentage based on the lipase activity in the absence of a bile salt [3, 5]: 218%
Lipase activity, percentage based on the lipase activity in the absence of a bile salt [3, 6]: 221%
Lipase activity, percentage based on the lipase activity in the absence of a bile salt [3, 7]: 232%
Lipase activity, percentage based on the lipase activity in the absence of a bile salt [3, 8]: 224%

II [iodine]
Activity inhibition of the lipase [4]: about 95%

CCOC(=O)OC(=O)OCC [ethoxyformic anhydride]
Activity inhibition of the lipase [4]: about 70%

O=C(O)CI [monoiodoacetic acid]
Activity inhibition by monoiodoacetic acid ([1]; concentration 10^-3 mole): Not inhibited
Activity inhibition by monoiodoacetic acid ([2]; concentration 10^-3 mole): Not inhibited

C[C@H](CCC(=O)O)[C@H]1CC[C@H]2[C@@H]3[C@H](O)C[C@@H]4C[C@H](O)CC[C@]4(C)[C@H]3C[C@H](O)[C@]12C [Cholate]
Lipase activity, percentage based on the lipase activity in the absence of a bile salt [3, 5]: 197%
Lipase activity, percentage based on the lipase activity in the absence of a bile salt [3, 6]: 221%
Lipase activity, percentage based on the lipase activity in the absence of a bile salt [3, 7]: 211%
Lipase activity, percentage based on the lipase activity in the absence of a bile salt [3, 8]: 229%

C[C@H](CCC(=O)O)[C@H]1CC[C@H]2[C@@H]3CC[C@@H]4C[C@H](O)CC[C@]4(C)[C@H]3C[C@H](O)[C@]12C [Desoxycholate]
Lipase activity, percentage based on the lipase activity in the absence of a bile salt [3, 5]: 289%
Lipase activity, percentage based on the lipase activity in the absence of a bile salt [3, 6]: 300%
Lipase activity, percentage based on the lipase activity in the absence of a bile salt [3, 7]: 305%
Lipase activity, percentage based on the lipase activity in the absence of a bile salt [3, 8]: 303%
